According to patent US20140322151A1, “Use Of Isosorbide Caprylates/Caprates In Deodorants And Antiperspirants” (CLARIANT INTERNATIONAL LTD, priority 2011, published 2014):

System: axillary body odor
Assay: 48-hour sniff test: reduction in body odor after single application of roll-on deodorant base formulation
Format: in vivo, human
Conditions: base formulation I
Protocol: To determine the reduction in body odor, the following base formulations for roll-on deodorants were used.
Various substances active against body odor were incorporated into the base formulations, for example as a further constituent of component D. These were the following substances:
To determine the reduction in body odor, the deodorizing action was carried out in the 48-hour sniff test, for which the procedure is as follows:
20 subjects are selected according to the following criteria: • female and male • at least 18 years old • nonsmokers • clinically healthy • readily detectable auxiliary body odor under both armpits
The two armpits of the subjects are preconditioned over several days, i.e. no kind of antiperspirants and deodorants are used and a pH-skin-neutral, unperfumed liquid soap is used.
On the 20 pretreated subjects, in the left or right axilla, after a sing application of 250-300 mg of the base formulation comprising active substances against body odor in the component D, three olfactory experts evaluate the axillary body odor and product scent as to intensity before and after treatment over a total of 48 hours.
The opposite axilla is not treated and serves as a standard for determining the relative intensity decrease in axillary body odor compared to the axilla which has been treated with the base formulation comprising active substances against body odor in component D.
As well as the starting value directly before the single application (after 0 hours) and the end value 48 hours after the single application, the intensity of the axillary body odor and product scent is also evaluated after 24 hours. The intensity of the body odor or perfume scent was assessed by the three olfactory experts according to the following scale: • 1=not detectable • 2=slightly detectable • 3=detectable • 4=strongly detectable • 5=very strongly detectable
Comparing the intensities of the body odor (or perfume scent) from the treated axilla and the untreated axilla gives, by virtue of the formula below, the relative intensity decrease in axillary body odor as a result of a single application of 250-300 mg of the base formulation comprising active substances against body odor in component D.

Compound	Result after 24 hours (relative intensity decrease in axillary body odor) (24 hours, 0.1% by weight, 5% by weight propylene glycol as solubilizer)	Result after 48 hours (relative intensity decrease in axillary body odor) (48 hours, 0.1% by weight, 5% by weight propylene glycol as solubilizer)	Result after 24 hours (relative intensity decrease in axillary body odor) (24 hours after single application, 7.6% by weight)	Result after 48 hours (relative intensity decrease in axillary body odor) (48 hours after single application, 7.6% by weight)
Cc1cc(CC(C)CC(C)(C)C)n(O)c(=O)c1 (stereo not shown) [Piroctonol]	15%	10%		
CCCCCCC(O)CO (stereo not shown) [octanediol]			18%	13%
